According to BindingDB's records for doi:10.1016/s0960-894x(00)00348-6 (Smithkline Beecham Pharmaceuticals, 2000):

Target: Tyrosyl-tRNA synthetase (Staphylococcus aureus)
Assay: Inhibitory activity of compound against tyrosyl tRNA synthetase from Staphylococcus aureus was determined

An IC50 of 21 nM was found for `N[C@@H](Cc1ccc(O)cc1)C(=O)N[C@@H](C(=O)O)[C@H]1[C@H](O)[C@@H](O)[C@@H](O)CN1O` [(R)-[(S)-2-Amino-3-(4-hydroxy-phenyl)-propionylamino]-((2S,3S,4S,5S)-1,3,4,5-tetrahydroxy-piperidin-2-yl)-acetic acid] in this work.
